Results from EP0318620A1, “Herbicidal sulfonamides” (E.I. DU PONT DE NEMOURS AND COMPANY, priority 1987, dated 1989).

Assays:
soybean = assay: Test B pan test in Sassafras sandy loam soil, pre- and postemergence; format: in vivo, Glycine max; settings: scale 0 to 100
Source text: (§1) Three round pans (25 cm diameter by 12.5 cm deep) were filled with Sassafras sandy loam soil. One pan was planted with nutsedge (Cyperus rotundus) tubers, crabgrass (Digitaria sanguinalis), sicklepod (Cassia obtusifolia), jimsonweed (Datura stramonium), velvetleaf (Abutilon theophrasti), lambsquarters (Chenopodim album), rice (Oryza sativa) and teaweed (Sida spinosa). The second pot was planted with green foxtail (Setaria viridis), cocklebur (Xantium pensyivanicum), morningglory (lpomoea hederacea), cotton (Gossypium hirsutum), johnsongrass (Sorghum halepense), barnyardgrass (Echinochloa crusgalli), corn (Zea mays), soybean (Glycine max) and giant foxtail (Setaria faberi). The third pot was planted with wheat (Triticum aestivum), barley (Hordeum vulgare), wild buckwheat (Polgonum convolvulus L.), cheatgrass (Bromus secalinus L.), sugarbeet (Beta vulgaris), wild oats (Avena fatua), viola (Viola arvensis), blackgrass (Alopecurus myosuroides), and rape (Brassica napus). The plants were grown for approximately fourteen days, then sprayed postemergence with the chemicals dissolved in a non-phytotoxic solvent.
(§2) Three round pans (25 cm diameter by 12.5 cm deep) were filled with Sassafras sandy loam soil. One pan was planted with nutsedge tubers, crabgrass, sicklepod, jimsonweed, velvetleaf, lambsquarters, rice and teaweed. The second pot was planted with green foxtail, cocklebur, morningglory, cottom, johnsongrass, . barnyardgrass, corn, soybean and giant foxtail. The third pot was planted with wheat, barley, wild buckwheat, cheatgrass, sugarbeet, wild oat, viola, blackgrass and rape. The three pans were sprayed preemer gence with the chemicals dissolved in a non-phytotoxic solvent.
(§3) Treated plants and controls were maintained in the greenhouse for 24 days, then all rated plants were compared to controls and visually rated for plant response.
(§4) A dash (-) response means no test.

wheat = assay: as above; format: in vivo, Triticum aestivum; settings: scale 0 to 100
Source text: as §1, §2, §3, §4

sugarbeet = assay: as above; format: in vivo, Beta vulgaris; settings: scale 0 to 100
Source text: as §1, §2, §3, §4

purple nutsedge = assay: Test A greenhouse herbicide test, pre- and postemergence; format: in vivo, Cyperus rotundus; settings: rated after sixteen days
Source text: (§5) Seeds of crabgrass (Digitaria spp.), barnyardgrass (Echinochloa crusgalli), cheatgrass (Bromus Secalinus), giant foxtail (Setaria faberii), wild oats (Avena fatua), velvetleaf (Abutilon theophrasti), morningglory (Ipomoea spp. , cocklebur (Xanthium pensylvanicum). sorghum, corn, barley, soybean, sugarbeet, cotton, rice, wheat and purple nutsedge (Cyperus rotundus) tubers were planted and treated preemergence with the test chemicals dissolved in a non-phytotoxic solvent. At the same time, these crop and weed species were treated with a soil/foliage application. At the time of treatment, the plants ranged in height from 2 to 18 cm. Treated plants and controls were maintained in a greenhouse for sixteen days, after which all species were compared to controls and visually rated for response to treatment. The ratings, summarized in Table A, are based on a numerical scale extending from 0 = no injury, to 10 = complete kill. The accompanying descriptive symbols have the following meanings: • B = burn; • C = chlorosis/necrosis; • D = defoliation; • E = emergence inhibition; • G = growth retardation; • H = formative effect; • U = unusual pigmentation; • X = axillary stimulation; • S = albinism; and • 6Y = abscised buds or flowers.

rice = assay: Test B pan test in Sassafras sandy loam soil, pre- and postemergence; format: in vivo, Oryza sativa; settings: scale 0 to 100
Source text: as §1, §2, §3, §4

cocklebur [1] = assay: as above; format: in vivo, Xantium pensyivanicum; settings: scale 0 to 100
Source text: as §1, §2, §3, §4

wild buckwheat = assay: as above; format: in vivo, Polgonum convolvulus L.; settings: scale 0 to 100
Source text: as §1, §2, §3, §4

nutsedge = assay: as above; format: in vivo, Cyperus rotundus; settings: scale 0 to 100
Source text: as §1, §2, §3, §4

velvetleaf [2] = assay: as above; format: in vivo, Abutilon theophrasti; settings: scale 0 to 100
Source text: as §1, §2, §3, §4

velvetleaf [3] = assay: Test A greenhouse herbicide test, pre- and postemergence; format: in vivo, Abutilon theophrasti; settings: rated after sixteen days
Source text: as §5

barnyardgrass = assay: as above; format: in vivo, Echinochloa crusgalli; settings: rated after sixteen days
Source text: as §5

sicklepod = assay: Test B pan test in Sassafras sandy loam soil, pre- and postemergence; format: in vivo, Cassia obtusifolia; settings: scale 0 to 100
Source text: as §1, §2, §3, §4

morningglory = assay: as above; format: in vivo, lpomoea hederacea; settings: scale 0 to 100
Source text: as §1, §2, §3, §4

cocklebur [4] = assay: Test A greenhouse herbicide test, pre- and postemergence; format: in vivo, Xanthium pensylvanicum; settings: POSTEMERGENCE, rated after sixteen days
Source text: as §5

## CCOC(=O)c1c(CC#N)cccc1S(=O)(=O)NC(=O)Nc1nc(OC)cc(OC)n1 [Compound 3, 2-(cyanomethyl)-6 [[(4,6-dimethoxypyrimidin-2-yl)-aminocarbonyl]aminosulfonyl]benzoic acid, ethyl ester]
soybean; POSTEMERGENCE, RATE 0001 G/HA
  SOYBEAN response rating: 90
soybean; POSTEMERGENCE, RATE 0004 G/HA
  SOYBEAN response rating: 100
soybean; POSTEMERGENCE, RATE 0016 G/HA
  SOYBEAN response rating: 100
soybean; POSTEMERGENCE, RATE 0062 G/HA
  SOYBEAN response rating: 100
soybean; PREEMERGENCE, RATE 0004 G/HA
  SOYBEAN response rating: 0
soybean; PREEMERGENCE, RATE 0016 G/HA
  SOYBEAN response rating: 20
soybean; PREEMERGENCE, RATE 0062 G/HA
  SOYBEAN response rating: 40
wheat; POSTEMERGENCE, RATE 0001 G/HA
  WHEAT response rating: 30
wheat; POSTEMERGENCE, RATE 0004 G/HA
  WHEAT response rating: 50
wheat; POSTEMERGENCE, RATE 0016 G/HA
  WHEAT response rating: 70
wheat; POSTEMERGENCE, RATE 0062 G/HA
  WHEAT response rating: 100
wheat; PREEMERGENCE, RATE 0004 G/HA
  WHEAT response rating: 0
wheat; PREEMERGENCE, RATE 0016 G/HA
  WHEAT response rating: 30
wheat; PREEMERGENCE, RATE 0062 G/HA
  WHEAT response rating: 70
sugarbeet; POSTEMERGENCE, RATE 0001 G/HA
  SUGAR BEETS response rating: 70
sugarbeet; POSTEMERGENCE, RATE 0004 G/HA
  SUGAR BEETS response rating: 100
sugarbeet; POSTEMERGENCE, RATE 0016 G/HA
  SUGAR BEETS response rating: 100
sugarbeet; POSTEMERGENCE, RATE 0062 G/HA
  SUGAR BEETS response rating: 100
sugarbeet; PREEMERGENCE, RATE 0004 G/HA
  SUGAR BEETS response rating: 50
sugarbeet; PREEMERGENCE, RATE 0016 G/HA
  SUGAR BEETS response rating: 70
sugarbeet; PREEMERGENCE, RATE 0062 G/HA
  SUGAR BEETS response rating: 90
Purple nutsedge; POSTEMERGENCE, RATE 0.01 KG/HA
  NUTSEDGE visual rating of response to treatment: 10C
Purple nutsedge; POSTEMERGENCE, RATE 0.05 KG/HA
  NUTSEDGE visual rating of response to treatment: 10C
Purple nutsedge; PREEMERGENCE, RATE 0.01 KG/HA
  NUTSEDGE visual rating of response to treatment: 4G
Purple nutsedge; PREEMERGENCE, RATE 0.05 KG/HA
  NUTSEDGE visual rating of response to treatment: 9G
rice; POSTEMERGENCE, RATE 0001 G/HA
  RICE response rating: 60
rice; POSTEMERGENCE, RATE 0004 G/HA
  RICE response rating: 90
rice; POSTEMERGENCE, RATE 0016 G/HA
  RICE response rating: 100
rice; POSTEMERGENCE, RATE 0062 G/HA
  RICE response rating: 100
rice; PREEMERGENCE, RATE 0004 G/HA
  RICE response rating: 0
rice; PREEMERGENCE, RATE 0016 G/HA
  RICE response rating: 30
rice; PREEMERGENCE, RATE 0062 G/HA
  RICE response rating: 80
Cocklebur [1]; POSTEMERGENCE, RATE 0001 G/HA
  COCKLEBUR response rating: 70
Cocklebur [1]; POSTEMERGENCE, RATE 0004 G/HA
  COCKLEBUR response rating: 80
Cocklebur [1]; POSTEMERGENCE, RATE 0016 G/HA
  COCKLEBUR response rating: 90
Cocklebur [1]; POSTEMERGENCE, RATE 0062 G/HA
  COCKLEBUR response rating: 100
Cocklebur [1]; PREEMERGENCE, RATE 0004 G/HA
  COCKLEBUR response rating: 30
Cocklebur [1]; PREEMERGENCE, RATE 0016 G/HA
  COCKLEBUR response rating: 60
Cocklebur [1]; PREEMERGENCE, RATE 0062 G/HA
  COCKLEBUR response rating: 90
Wild buckwheat; POSTEMERGENCE, RATE 0001 G/HA
  WILD BUCKWHEAT response rating: 30
Wild buckwheat; POSTEMERGENCE, RATE 0004 G/HA
  WILD BUCKWHEAT response rating: 60
Wild buckwheat; POSTEMERGENCE, RATE 0016 G/HA
  WILD BUCKWHEAT response rating: 90
Wild buckwheat; POSTEMERGENCE, RATE 0062 G/HA
  WILD BUCKWHEAT response rating: 100
Wild buckwheat; PREEMERGENCE, RATE 0004 G/HA
  WILD BUCKWHEAT response rating: 50
Wild buckwheat; PREEMERGENCE, RATE 0016 G/HA
  WILD BUCKWHEAT response rating: 70
Wild buckwheat; PREEMERGENCE, RATE 0062 G/HA
  WILD BUCKWHEAT response rating: 90
nutsedge; POSTEMERGENCE, RATE 0001 G/HA
  NUTSEDGE response rating: 100
nutsedge; POSTEMERGENCE, RATE 0004 G/HA
  NUTSEDGE response rating: 100
nutsedge; POSTEMERGENCE, RATE 0016 G/HA
  NUTSEDGE response rating: 100
nutsedge; POSTEMERGENCE, RATE 0062 G/HA
  NUTSEDGE response rating: 100
nutsedge; PREEMERGENCE, RATE 0004 G/HA
  NUTSEDGE response rating: 0
nutsedge; PREEMERGENCE, RATE 0016 G/HA
  NUTSEDGE response rating: 30
nutsedge; PREEMERGENCE, RATE 0062 G/HA
  NUTSEDGE response rating: 70
Velvetleaf [2]; POSTEMERGENCE, RATE 0001 G/HA
  VELVETLEAF response rating: 70
Velvetleaf [2]; POSTEMERGENCE, RATE 0004 G/HA
  VELVETLEAF response rating: 100
Velvetleaf [2]; POSTEMERGENCE, RATE 0016 G/HA
  VELVETLEAF response rating: 100
Velvetleaf [2]; POSTEMERGENCE, RATE 0062 G/HA
  VELVETLEAF response rating: 100
Velvetleaf [2]; PREEMERGENCE, RATE 0004 G/HA
  VELVETLEAF response rating: 0
Velvetleaf [2]; PREEMERGENCE, RATE 0016 G/HA
  VELVETLEAF response rating: 30
Velvetleaf [2]; PREEMERGENCE, RATE 0062 G/HA
  VELVETLEAF response rating: 50
Velvetleaf [3]; POSTEMERGENCE, RATE 0.01 KG/HA
  VELVETLEAF visual rating of response to treatment: 10C
Velvetleaf [3]; POSTEMERGENCE, RATE 0.05 KG/HA
  VELVETLEAF visual rating of response to treatment: 10C
Velvetleaf [3]; PREEMERGENCE, RATE 0.01 KG/HA
  VELVETLEAF visual rating of response to treatment: 2H
Velvetleaf [3]; PREEMERGENCE, RATE 0.05 KG/HA
  VELVETLEAF visual rating of response to treatment: 5H
barnyardgrass; POSTEMERGENCE, RATE 0.01 KG/HA
  BARNYARD GRASS visual rating of response to treatment: 9C
barnyardgrass; POSTEMERGENCE, RATE 0.05 KG/HA
  BARNYARD GRASS visual rating of response to treatment: 10C
barnyardgrass; PREEMERGENCE, RATE 0.01 KG/HA
  BARNYARD GRASS visual rating of response to treatment: 2G
sicklepod; POSTEMERGENCE, RATE 0001 G/HA
  CASSIA response rating: 30
sicklepod; POSTEMERGENCE, RATE 0004 G/HA
  CASSIA response rating: 50
sicklepod; POSTEMERGENCE, RATE 0016 G/HA
  CASSIA response rating: 70
sicklepod; POSTEMERGENCE, RATE 0062 G/HA
  CASSIA response rating: 90
sicklepod; PREEMERGENCE, RATE 0004 G/HA
  CASSIA response rating: 0
sicklepod; PREEMERGENCE, RATE 0016 G/HA
  CASSIA response rating: 0
sicklepod; PREEMERGENCE, RATE 0062 G/HA
  CASSIA response rating: 0
morningglory; POSTEMERGENCE, RATE 0001 G/HA
  MORNINGGLORY response rating: 30
morningglory; POSTEMERGENCE, RATE 0004 G/HA
  MORNINGGLORY response rating: 50
morningglory; POSTEMERGENCE, RATE 0016 G/HA
  MORNINGGLORY response rating: 70
morningglory; POSTEMERGENCE, RATE 0062 G/HA
  MORNINGGLORY response rating: 90
morningglory; PREEMERGENCE, RATE 0004 G/HA
  MORNINGGLORY response rating: 0
morningglory; PREEMERGENCE, RATE 0016 G/HA
  MORNINGGLORY response rating: 0
morningglory; PREEMERGENCE, RATE 0062 G/HA
  MORNINGGLORY response rating: 30
Cocklebur [4]; RATE 0.01 KG/HA
  COCKLEBUR visual rating of response to treatment: 10C
Cocklebur [4]; RATE 0.05 KG/HA
  COCKLEBUR visual rating of response to treatment: 10C
